Ends that are not written are not given here.
Assays:
Assay type in all cases: cell-based, human
HeLa cells [1] = assay: Peptides toxicity assay (MTT assay), HeLa viability and proliferation; details: for cytotoxicity (result in words): MTT staining, 24 h incubation with HeLa cells, concentrations up to 1000 μM (FIG. 3A, 3B)
Protocol: (§1) HeLa viability and proliferation in the presence of peptides was tested using a 3-(4,5-dimethylthiazol-2-yl)-2,5-diphenyltetrazolium bromide (MTT) assay.
(§2) (cf. “MTT-cell proliferation assay” Cell Biology: A Laboratory Handbook, Academic Press, 1998, Second Ed. vol.1; Y. Liu et al., “Mechanism of cellular 3-(4,5-dimethylthiazol-2-yl)-2,5-diphenyltetrazolium bromide (MTT) reduction”, J. Neurochem. 1997 vol. 69 pp. 581-93).
(§3) For each assay 7×10^3 cells/cm^2 were seeded on a 96-well plate (Nange Nunc) (100 μl/hole) and cultured for 24 h. In order to avoid saturation in cell growth after 24 h of peptide incubation, 7×10^3 cells/cm^2 were used in the proliferation measurement (instead of 21.4×10^3 cells/cm^2 seeded in previous experiments). After complete adhesion to the plate, the culture medium was discarded. Peptides were added at growing concentrations of 50, 100, 500, and 1000 μM. The cells were incubated for 3 h or 24 h at 37° C. under 5% CO2 atmosphere. MTT was added 2 h before the final incubation time, i.e., after 1 h for the 3 h incubation time and after 22 h for the 24 h incubation time at a final concentration per hole of 0.5 mg/ml. The cells with peptide and MTT were incubated for a further 2 h and then the medium was discarded by aspiration. Isopropanol was added to dissolve formazan, a dark blue coloured crystal observed in the wells. Absorbance was measured at λ=570 nm, 30 min after the addition of isopropanol. The cell viability was expressed as a percent ratio of cells treated with peptide against cells untreated used as control.

[2] = as above; details: human, HeLa cells, MTT, 24 h incubation, read-out: cell viability; for viability at 24 h, 50 µM: peptide at 50 μM (FIG. 3B); for viability at 24 h, 500 µM: peptide at 500 μM (FIG. 3B)
Protocol: as §1, §2, §3

HeLa cells [3] = assay: Microplate fluorimeter reader assay (cellular uptake of carboxyfluoresceinated peptides)
Protocol: Comparative properties of labelled peptides for translocation through the cell membrane were checked with HeLa human cell line. First, the extent of the uptake of the monomers, dimers and trimers at 50 μM concentration in HeLa cells was quantified using a fluorescence microplate reader assay. A dose-response analysis was then undertaken, incubating HeLa cells with the peptides at different concentrations. The cellular uptake of the new peptides was also studied by confocal laser scanning microscopy (CLSM).
HeLa cells were obtained from ATCC. They were maintained in DMEM ([…]) culture medium (Biological Industries) containing 10% Fetal Calf Serum (FCS), 2 mM glutamine, 50 u/ml penicillin and […] streptomycin. For confocal microscopy experiments, exponentially growing HeLa cells were detached from the culture flasks using a trypsin-0.25% EDTA solution and the cell suspension was seeded at a concentration of 21.4×10^3 cells/cm^2 onto glass coverslips or onto 8-well Lab-Teck™ chambered coverglass or on 96-well plate (Nalge Nunc International). Experiments were carried out 24 h later, when the confluence was about 60-70%. The carboxyfluoresceinated compounds were dissolved in PBS and sterilized with 0.22 μm filters (Millex-GV, PVDF, Durapore, Millipore). The peptides and 5(6)-carboxyfluorescein stock solutions were diluted in the cell culture medium. Non-adherent cells were washed away and attached cells were incubated at 37° C. in CO2 atmosphere in DMEM medium with a known concentration of peptides for 3 h.
For each assay, 21.4×10^3 cells/cm^2 were seeded and cultured for 24 h. After complete adhesion to the plate, the culture medium was changed. […] The measurement of fluorescence emitted was carried out after 30 min incubation with lysis buffer in a FL600 Microplate Fluorescence Reader (Bio-Tek). Fluorescence was measured at a λexcitation=485/20 nm and a λemission=530/25 nm. A triplicate of each peptide or carboxyfluorescein concentration was performed and the fluorescence emitted for the blanks (cells with culture medium and without peptides) was subtracted. […]

(Arg-Lys-Lys-Arg-Arg-Gln-Arg-Arg-Arg)-NH2 (RKKRRQRRR-NH2) [Tat]
concentration at which cytotoxic (HeLa cells [1]): 50 µM

CC[C@H](C)[C@H](NC(=O)[C@H](CCCCN)NC(=O)[C@@H](NC(=O)[C@H](CCC(N)=O)NC(=O)[C@@H](N)CCCNC(=N)N)[C@@H](C)CC)C(=O)N[C@@H](Cc1c[nH]c2ccccc12)C(=O)N[C@@H](Cc1ccccc1)C(=O)N[C@@H](CCC(N)=O)C(=O)N[C@@H](CC(N)=O)C(=O)N[C@@H](CCCNC(=N)N)C(=O)N[C@@H](CCCNC(=N)N)C(=O)N[C@@H](CCSC)C(=O)N[C@@H](CCCCN)C(=O)N[C@@H](Cc1c[nH]c2ccccc12)C(=O)N[C@@H](CCCCN)C(=O)N[C@@H](CCCCN)C(N)=O [Antp, (Arg-Gln-Ile-Lys-Ile-Trp-Phe-Gln-Asn-Arg-Arg-Met-Lys-Trp-Lys-Lys)-NH2]
concentration at which cytotoxic (HeLa cells [1]): 50 µM

N=C(N)NCCC[C@H](NC(=O)[C@H](CCCNC(=N)N)NC(=O)[C@H](CCCNC(=N)N)NC(=O)[C@H](CCC(N)=O)NC(=O)[C@H](CCCNC(=N)N)NC(=O)[C@H](CCCNC(=N)N)NC(=O)[C@H](CCCCN)NC(=O)[C@H](CCCCN)NC(=O)[C@H](CCCNC(=N)N)NC(=O)c1ccc2c(c1)C(=O)OC21c2ccc(O)cc2Oc2cc(O)ccc21)C(N)=O [CF-Tat-NH2]
viability at 24 h, 50 µM [2]: 64% | viability at 24 h, 500 µM [2]: 40% | cytotoxicity (result in words) (HeLa cells [1]): cytotoxic at relatively low concentrations

CF-(Val-Arg-Leu-Pro-Pro-Pro)3
fluorescence emitted (uptake) compared with the other CF-(Val-X-Leu-Pro-Pro-Pro)n peptides (HeLa cells [3]; HeLa cells incubated 3 h at 50 μM, X=Arg and His, n=1-3 (FIG. 2A)): higher fluorescence intensity | degree of internalization measured against CF-Antp-NH2 (HeLa cells [3]; HeLa cells, relative to CF-Antp-NH2): 20 times lower | degree of internalization measured against CF-Tat-NH2 (HeLa cells [3]; HeLa cells, relative to CF-Tat-NH2): 15 times lower

CC[C@H](C)[C@H](NC(=O)[C@H](CCCCN)NC(=O)[C@@H](NC(=O)[C@H](CCC(N)=O)NC(=O)[C@H](CCCNC(=N)N)NC(=O)c1ccc2c(c1)C(=O)OC21c2ccc(O)cc2Oc2cc(O)ccc21)[C@@H](C)CC)C(=O)N[C@@H](Cc1c[nH]c2ccccc12)C(=O)N[C@@H](Cc1ccccc1)C(=O)N[C@@H](CCC(N)=O)C(=O)N[C@@H](CC(N)=O)C(=O)N[C@@H](CCCNC(=N)N)C(=O)N[C@@H](CCCNC(=N)N)C(=O)N[C@@H](CCSC)C(=O)N[C@@H](CCCCN)C(=O)N[C@@H](Cc1c[nH]c2ccccc12)C(=O)N[C@@H](CCCCN)C(=O)N[C@@H](CCCCN)C(N)=O [CF-Antp-NH2]
viability at 24 h, 50 µM [2]: 75% | viability at 24 h, 500 µM [2]: 11% | cytotoxicity (result in words) (HeLa cells [1]): cytotoxic at relatively low concentrations

Source: US20090036363A1, “Peptides as cell penetrating carriers” (priority 2004, published 2009)
